Laboratory results published in patent US4581359A, “Pharmacological treatments with N-7-substituted derivatives of theophylline” (priority 1984, dated 1986).
“And” between values parts separate entries of the source, which are not always exact repeats. Equal values may be shown once. Read-outs that look alike come from different tables or passages of the source.

Assays:
[1] = Dyphylline 20 min intravenous infusion in two healthy male subjects: pharmacokinetics, blood pressure, pulse (Example 2); type: in vivo, human; details: for V2, volume of peripheral compartment: Vd - V1; for Css, steady state: infusion rate/V1 Ke1, predicted only; for half-life / k el / Vd: human, in vivo, iv, 1000 mg; for half-life: 0.693/β
Experimental: 1000 mg of the drug dyphylline was infused over twenty minutes in two heathy male patients to determine the volume of distribution of the central compartment.
A physician evaluated two male volunteer subjects for their drug and disease histories. […] The subjects fasted from 10:00 p.m. before dosing at 7:30 a.m. the following day until four hours post dosing, after which food (except xanthines; i.e. chocolate, tea, coffee) and beverages were allowed ad lib.
A dose of 1,000 mg of dyphylline (Neothylline®) diluted in normal saline (0.9 percent) was administered at a rate of 50 mg/min via a constant infusion pump for twenty minutes. Blood pressure and electrocardiogram readings were monitored by a physician.
Whole blood (7 cc) was collected from each subject at time zero just prior to dosing and at 10, 15, 20, 30, 40 minutes and 1.0, 1.5, 2.0, 3.0, 4.0, 5.0, 6.0, 7.0, 8.0, 12.0, and 16.0 hours post dosing with a syringe. The heparin lock was cleared of all heparin solution and the lock filled with subject blood by using a disposable syringe prior to sampling. Each sample was then collected in a new disposable syringe and immediately transferred to a heparinized vacuum tube. After each sampling, the heparin lock was flushed and filled with heparin (10 u/ml). Once samples had been transferred to vacuum tubes, they were inverted several times, then stored in crushed ice until centrifuged and the plasma collected. Plasma samples were then frozen until assayed.
Plasma and urine samples were assayed by high-pressure liquid chromatography (HPLC) as reported by Gisclon, in the article mentioned above.
Plasma samples were prepared for assay by mixing 0.5 ml of plasma with 0.5 ml of acetonitrile containing β-hydroxyethyltheophylline (40 mcg/ml) as internal standard, and vortexed 15 seconds. The plasma sample with its protein precipitate was then centrifuged for 15 minutes at 2800 rpm and 5-40 μl injected into the HPLC.
FIGS. 5 and 6 show dyphylline plasma concentration vs. time curves for the subjects. Solid circles are the data points which were obtained by duplicate analysis of each sample by different analysts and the solid line represents the predicted values obtained after fitting the data with an Autoan computer package which uses CSTRIP and NONLIN (John G. Wagner, Fundamentals of Clinical Pharmacokinetics, Drug Intelligence Publications,Inc., Hamilton, Ill., 1975). This program determined that the data from time zero to 480 min. (8 hr) for subject one and 420 min. (7 hr) for subject two were compatible with a two compartment open model with zero order infusion for 20 minutes and first order elimination from the central compartment only. The fit to the data was quite good with r^2 =0.996 for subject one and 0.997 for subject two. The average percent deviation for the predicted lines from the data points was 7.7 percent and the estimated concentrations averaged 98.9 percent of the observed concentrations.

clinical = type: in vivo; details: for Cmax: iv, 1000 mg, after 20-minute intravenous infusion of 1000 mg
Experimental: To confirm the data shown in Table XI, dyphylline, 1000 mg, was administered to twelve healthy male volunteers as a zero-order infusion (50 mg/min) or as three conventional tablets (2×400 mg, 1×200 mg).

[2] = in vivo
Experimental: One horse was administered acetyl promazine thiamyol sodium, quaifensin, and halothane to produce general anesthesia. Dyphylline (20 mg/kg) was given as an intravenous bolus injection in less than 15 seconds and aminophylline (10 mg/kg) was given as an infusion over about 20 minutes. Plasma and cerebral spinal fluid were collected and assayed by high pressure liquid chromatography for both dyphylline and theophylline.

[3] = cited from earlier work
[4] = Concomitant dyphylline and aminophylline in two horses: plasma concentration, blood pressure, pulse (Example 3); details: horse, plasma, iv, 20 mg/kg, dyphylline peak plasma concentration, 20 mg/kg bolus
Experimental: Two horses were administered dyphylline and aminophylline concomitantly.
The second horse was given a bolus injection of dyphylline (20 mg/kg as 100 mg/ml solution in D5W) over 15 seconds into the jugular vein. Aminophylline infusion (10 mg/kg dissolved in one liter of D5W) was started immediately and administered over 20 minutes.

## Cn1c(=O)c2c(ncn2CC(O)CO)n(C)c1=O (stereo not shown) [dyphylline, dihydroxypropyl theophylline]
[1]; 1000 mg over 20 min, two subjects
  adverse side effects: No adverse side effects were observed or reported
[1]; 10 M, 15 M, 20 M (end), 30 M, 40 M, 60 M, 90 M, predose 125/80
  Blood pressure, diastolic, Subject Two: 80 mm Hg and 85 mm Hg and 75 mm Hg
[1]; Subject 1, 1000 mg over 20 min
  K12: 1.94 h⁻¹
  K21: 2.50 h⁻¹
  α: 4.73 h⁻¹
[1]; Subject 1
  V2, volume of peripheral compartment: 30.28 L
  Css, steady state: 142560 ng/mL
  half-life: 2.11 h
[1]; Subject 2, 1000 mg over 20 min
  K12: 4.02 h⁻¹
  K21: 4.39 h⁻¹
  α: 8.83 h⁻¹
[1]; Subject 2
  V2, volume of peripheral compartment: 25.45 L
  Css, steady state: 142130 ng/mL
  half-life: 1.66 h
[1]; during the study
  blood pressure and pulse rate: essentially unchanged
[1]; Subject 1, 1000 mg over 20 min, read-out: Ke1 (converted)
  k el: 0.000172 s⁻¹
[1]; Subject 1, 1000 mg over 20 min, read-out: β (converted)
  k el: 9.17e-05 s⁻¹
[1]; Subject 1, read-out: V1
  Vd: 33.9 L
[1]; Subject 1, read-out: V3 (footnote: Vd, total volume of distribution)
  Vd: 64.2 L
[1]; Subject 2, 1000 mg over 20 min, read-out: Ke1 (converted)
  k el: 0.000233 s⁻¹
[1]; Subject 2, 1000 mg over 20 min, read-out: β (converted)
  k el: 0.000117 s⁻¹
[1]; Subject 2, read-out: V1
  Vd: 25.1 L
[1]; Subject 2, read-out: V3 (footnote: Vd, total volume of distribution)
  Vd: 50.6 L
[1]; two subjects, range, read-out: volume of the central compartment per kg
  Vd: 0.35 to 0.47 L/kg
[1]; two subjects, read-out: total volume of distribution, average
  Vd: ~0.8 L/kg
[1]; two subjects, read-out: volume of the central compartment
  Vd: 25 to 34 L
[1]; two subjects, read-out: volume of the central compartment, average
  Vd: ~0.41 L/kg
clinical; human, in vivo
  drug related toxicities: No subjects reported any drug related toxicities
clinical; human, plasma, read-out: Maximum plasma concentration, average
  Cmax: 30100 ng/mL
clinical; human, plasma, read-out: Maximum plasma concentration, range
  Cmax: 18400 to 46800 ng/mL
clinical; human, plasma, 1000 mg IV, twelve volunteers, standard deviation 0.08, read-out: average total volume of distribution, IV
  Vd: 0.78 L/kg
clinical; α=0.05 level
  difference between predose and peak drug effects on blood pressure and heart rate: not statistically significant
[2]
  penetration into cerebral spinal fluid: penetrate into cerebral spinal fluid
[3]; Poynor
  pharmacokinetics at high dose: may produce nonlinear pharmacokinetics
[3]; dogs
  concentration not toxic in dogs: 100000 ng/mL
[4]; first value, presumably first horse
  Cmax: 46000 ng/mL
[4]; second value, presumably second horse
  Cmax: 88000 ng/mL
